The numbers were not newly measured in patent US12534749B2, “Monoacylated MEL-producing microorganism” (NATIONAL INSTITUTE OF ADVANCED INDUSTRIAL SCIENCE AND …, priority 2019, dated 2026), which cites them from elsewhere.

The conditions of the data set: known value, T. Fukuoka et al., Carbohydrate Research 351 (2012) 81-86.

Turning to diacylated MEL-B, the CMC is 3.1 µM.
